Key:
Format in all cases: cell-based, human
[1] = test system: primary cells of esophageal squamous carcinoma; experiment: Effects of concentrations of the added factors or small molecule compounds on proliferation (Example 7); conditions: for proliferation promoting effect when added to No. 7 medium: 10 μM, 3 μM, 1 μM, 0.3 μM, 0.1 μM, control No. 7 medium; for concentration at which the cell proliferation effect is most significant: added to No. 7 medium lacking this factor
Description: According to the same process as in Example 1, endoscopic tissue Sample 65, Sample 66, Sample 67, Sample 68 and Sample 69 were isolated to obtain primary cells of esophageal squamous carcinoma, and the obtained primary cells of esophageal squamous carcinoma were cultured by using No. 7 medium of Example 1. The resultants were inoculated into 12-well plate at a living cell density of 1×10^4/cm^2 (45,000 cells per well), and then the plate was added with NIH-3T3 cells that have been irradiated by γ-ray (irradiation dose 35Gy) at a cell density of 2×10^4/cm^2, which were then fully mixed. After surface disinfection, the plate was placed in a 37° C., 5% CO2 incubator (Thermo Fisher) for culture. When the cells expended to cover 85% of the plate, the 12-well plate was taken out, rinsed with 200 μL 0.25% trypsin (Gibco) for 1 minute. The liquid was removed by sucking, and 500 μL 0.05% trypsin (Gibco) was added to each well again. The resultant was placed in a 37° C., 5% CO2 incubator to react for 10 minutes, and the digestion can be terminated until it can be observed under the microscope (EVOS […], Invitrogen) that the cells have been completely digested. After being centrifuged at 1500 rpm for 4 minutes, the supernatant was discarded, and 1 mL of basic culture medium was added for resuspension. The total number of cells was obtained by counting with a flow imaging counter (JIMBIO FIL, Jiangsu Jimbio Technology Co., Ltd.). The obtained cells were used for the following cultivation experiments. The digested cell suspension was diluted with the above Formulations 1-8 and No. 7 medium in Example 1 respectively, and were seeded into a 24-well plate with 20,000 cells and 500 μL volume per well. When using the medium of Formulation 1, five concentration gradients of N2 additives with the final concentration of 1:400, 1:200, 1:100, 1:50 and 1:25 were prepared, respectively, and the prepared N2 additives were added respectively to a 24-well plate inoculated with primary cells, with 500 μL per well; the medium of Formulation 1 was used as the control hole (BC). When using the medium of Formulation 2, five concentration gradients of non-essential amino acids with the final concentration of 400 μM, 200 μM, 100 μM, 50 μM, 25 μM were prepared, respectively, and the prepared non-essential amino acids were added respectively to a 24-well plate inoculated with primary cells, with 500 μL per well; the medium of Formulation 2 was used as the control hole (BC). When using the medium of Formulation 3, five concentration gradients of glutamine with the final concentration of 8 mM, 4 mM, 2 mM, 1 mM, 0.5 mM were prepared, respectively, and the prepared glutamine were added respectively to a 24-well plate inoculated with primary cells, with 500 μL per well; the medium of Formulation 3 was used as the control hole (BC). When using the medium of Formulation 4, five concentration gradients of insulin with the final concentration of 40 μg/mL, 20 μg/mL, 10 μg/mL, 5 μg/mL, 2.5 μg/mL were prepared, respectively, and the prepared insulin were added respectively to a 24-well plate inoculated with primary cells, with 500 μL per well; the medium of Formulation 4 was used as the control hole (BC). When using the medium of Formulation 5, five concentration gradients of insulin-like growth factor 1 (IGF1) with the final concentration of 40 ng/mL, 20 ng/mL, 10 ng/mL, 5 ng/mL, 2.5 ng/mL were prepared, respectively, and the prepared insulin-like growth factor 1 (IGF1) were added respectively to a 24-well plate inoculated with primary cells, with 500 μL per well; the medium of Formulation 5 was used as the control hole (BC). […]

[2] = test system: primary cells of esophageal squamous carcinoma; experiment: Effect of a single factor added to the basic culture medium on proliferation (Example 2); conditions: Sample 57, 7th day; BM = DMEM/F12 + 10 μM Y27632 + 100 mg/mL Primocin; factor at its No. 7 medium concentration
Description: To the basic culture mediums of Example 1 (DMEM/F12 medium+10 μM Y27632+100 mg/mL Primocin) were separatedly added 1:50 ratio of N2 additive, 20 μg/mL insulin, 7 μg/mL bovine pituitary extract, 2 mM glutamine, 400 μM non-essential amino acids, 0.4 μg/mL hydrocortisone, 5 ng/mL insulin-like growth factor 1, respectively, to prepare the culture mediums of this Example. According to the same process as in Example 1, endoscopic tissue Sample 57, Sample 58, Sample 59, Sample 60 and Sample 61 were isolated to obtain primary cells of esophageal squamous carcinoma, and the obtained primary cells of esophageal squamous carcinoma were cultured by using the respective culture mediums prepared in this Example, as well as BM medium and No. 7 medium (EM) of Example 1. The resultants were inoculated into 48-well plate at a living cell density of 1×10^4/cm^2 (10,000 cells per well), and then the plate was added with NIH-3T3 cells that have been irradiated by γ-ray (irradiation dose 35Gy) at a cell density of 2×10^4/cm^2, which were then fully mixed. After surface disinfection, the plate was placed in a 37° C., 5% CO2 incubator (Thermo Fisher) for culture. On the 7th day of culture, the 48-well plate was taken out, rinsed with 200 μL 0.25% trypsin (Gibco) for 1 minute. The liquid was removed by sucking, and 500 μL 0.05% trypsin (Gibco) was added to each well again. The resultant was placed in a 37° C., 5% CO2 incubator to react for 10 minutes, and the digestion can be terminated until it can be observed under the microscope (EVOS […], Invitrogen) that the cells have been completely digested. After being centrifuged at 1500 rpm for 4 minutes, the supernatant was discarded, and 1 mL of basic culture medium was added for resuspension. The total number of cells was obtained by counting with a flow imaging counter (JIMBIO FIL, Jiangsu Jimbio Technology Co., Ltd.). The effect of combination of two factors in the culture medium for primary cells of esophageal squamous carcinoma on the proliferation of primary cells of esophageal squamous carcinoma was evaluated. The results obtained from primary cells of esophageal squamous carcinoma isolated from endoscopic tissue Sample 57 are shown in FIG. 2.

[3] = test system: primary cells of esophageal squamous carcinoma; experiment: Effect of adding other factors to EM medium on proliferation (Example 3); conditions: Sample 62, 10 ng/ml factor added to No. 7 medium (EM), cultured for 7 days
Description: To No. 7 mediums (EM) of Example 1 were separately added 10 ng/ml fibroblast growth factor 2 (FGF2), 10 ng/ml fibroblast growth factor 10 (FGF10), 10 ng/ml fibroblast growth factor 7 (FGF7) or the combination of 10 ng/ml FGF2, 10 ng/ml FGF10 and 10 ng/ml FGF7, respectively, to prepare the mediums of this Example.
According to the same process as in Example 1, endoscopic tissue Sample 62 and Sample 63 were isolated to obtain primary cells of esophageal squamous carcinoma, and the obtained primary cells of esophageal squamous carcinoma were cultured by using the respective culture mediums prepared in this Example, as well as No. 7 medium (EM) of Example 1. The resultants were inoculated into 48-well plate with at a cell density of 1×10^4/cm^2 (10,000 cells per well), and then the plate was added with NIH-3T3 cells that have been irradiated by γ-ray (irradiation dose 35Gy) at a cell density of 2×10^4/cm^2, which were then fully mixed. After surface disinfection, the plate was placed in a 37° C., 5% CO2 incubator (Thermo Fisher) for culture. On the 7th day of culture, the 48-well plate was taken out, rinsed with 200 μL 0.25% trypsin (Gibco) for 1 minute. The liquid was removed by sucking, and 500 μL 0.05% trypsin (Gibco) was added to each well again. The resultant was placed in a 37° C., 5% CO2 incubator to react for 10 minutes, and the digestion can be terminated until it can be observed under the microscope (EVOS M500, Invitrogen) that the cells have been completely digested. After being centrifuged at 1500 rpm for 4 minutes, the supernatant was discarded, and 1 mL of No. 7 medium (EM) was added for resuspension. The total number of cells was obtained by counting with a flow imaging counter (JIMBIO FIL, Jiangsu Jimbio Technology Co., Ltd.). The effect of adding other factors to the culture medium for primary cells of esophageal squamous carcinoma of the invention on the proliferation of primary cells of esophageal squamous carcinoma was evaluated. […]

Cc1cccc(-c2nn(C(=S)Nc3ccccc3)cc2-c2ccnc3ccccc23)n1 [A83-01]
proliferation promoting effect when added to No. 7 medium [1]: do not show significant proliferation promoting effect

Cc1c[nH]c(-c2cnc(NCCNc3ccc(C#N)cn3)nc2-c2ccc(Cl)cc2Cl)n1 [CHIR99021]
proliferation promoting effect when added to No. 7 medium [1]: do not show significant proliferation promoting effect

C[C@H](NC(=O)Cc1cc(F)cc(F)c1)C(=O)N[C@H](C(=O)OC(C)(C)C)c1ccccc1 [DAPT]
proliferation promoting effect when added to No. 7 medium [1]: do not show significant proliferation promoting effect

CC(C)Oc1ccc(-c2cnc3c(-c4ccnc5ccccc45)cnn3c2)cc1 [DMH-1]
proliferation promoting effect when added to No. 7 medium [1]: do not show significant proliferation promoting effect

Cc1ccc2nc(NC(=O)CSc3nc4c(c(=O)n3-c3ccccc3)SCC4)sc2c1 [IWP2]
proliferation promoting effect when added to No. 7 medium [1]: do not show significant proliferation promoting effect

c1ccc2c(-c3cnn4cc(-c5ccc(N6CCNCC6)cc5)cnc34)ccnc2c1 [LDN193189]
proliferation promoting effect when added to No. 7 medium [1]: do not show significant proliferation promoting effect

NC(=O)c1ccc(-c2nc(-c3ccc4c(c3)OCO4)c(-c3ccccn3)[nH]2)cc1 [SB431542]
proliferation promoting effect when added to No. 7 medium [1]: do not show significant proliferation promoting effect

C[C@@H](N)[C@H]1CC[C@H](C(=O)Nc2ccncc2)CC1 [Y27632]
concentration at which the cell proliferation effect is most significant ([1]; five concentration gradients): 10 µM

NC(=O)CC[C@H](N)C(=O)O [glutamine]
cell proliferation efficiency when one factor is added to the basic culture medium [2]: better than that of the basic culture medium, but was not as good as that of the No. 7 medium (EM) | concentration at which the cell proliferation effect is most significant ([1]; tested 0.5-8 mM): 2000 µM

C[C@]12CCC(=O)C=C1CC[C@@H]1[C@@H]2[C@@H](O)C[C@@]2(C)[C@H]1CC[C@]2(O)C(=O)CO [hydrocortisone]
cell proliferation efficiency when one factor is added to the basic culture medium [2]: better than that of the basic culture medium, but was not as good as that of the No. 7 medium (EM) | concentration at which the cell proliferation effect is most significant ([1]; five concentration gradients): 400 ng/mL

FGF2: fibroblast growth factor 2
effect on proliferation as compared with EM medium (ratio of cell numbers) [3]: no significant effect for promoting proliferation

insulin
cell proliferation efficiency when one factor is added to the basic culture medium [2]: better than that of the basic culture medium, but was not as good as that of the No. 7 medium (EM) | concentration at which the cell proliferation effect is most significant ([1]; five concentration gradients): 20 ng/mL

insulin-like growth factor 1: insulin-like growth factor 1 (IGF-1, Sino Biological)
cell proliferation efficiency when one factor is added to the basic culture medium [2]: better than that of the basic culture medium, but was not as good as that of the No. 7 medium (EM) | concentration at which the cell proliferation effect is most significant ([1]; five concentration gradients): 5 ng/mL

B1: FGF10: fibroblast growth factor 10 (protein, UniProt O15520 38-208, looked up)
Fibroblast growth factor 10: QALGQDMVSPEATNSSSSSFSSPSSAGRHVRSYNHLQGDVRWRKLFSFTKYFLKIEKNGKVSGTKKENCPYSILEITSVEIGVVAVKAINSNYYLAMNKKGKLYGSKEFNNDCKLKERIEENGYNTYASFNWQHNGRQMYVALNGKGAPRRGQKTRRKNTSAHFLPMVVHS
effect on proliferation as compared with EM medium (ratio of cell numbers) [3]: no significant effect for promoting proliferation

B2: FGF7: fibroblast growth factor 7 (protein, UniProt P21781 32-194, looked up)
Fibroblast growth factor 7: CNDMTPEQMATNVNCSSPERHTRSYDYMEGGDIRVRRLFCRTQWYLRIDKRGKVKGTQEMKNNYNIMEIRTVAVGIVAIKGVESEFYLAMNKEGKLYAKKECNEDCNFKELILENHYNTYASAKWTHNGGEMFVALNQKGIPVRGKKTKKEQKTAHFLPMAIT
effect on proliferation as compared with EM medium (ratio of cell numbers) [3]: inhibited

Source: patent US20230091960A1, “CULTURE MEDIUM FOR PRIMARY CELLS OF ESOPHAGEAL SQUAMOUS CARCINOMA, AND CULTIVATION METHOD THEREFOR” (PRECEDO PHARMACEUTICALS CO., LTD, priority 2020, published 2023)
